Converted amounts (≈) assume the structure as drawn.
Columns and labels:
[1] = test system: Nannizzia nana; assay: Minimum inhibitory concentration against Microsporum nanum; format: functional
[2] = test system: Nannizzia gypsea; assay: Minimum inhibitory concentration Microsporum gypseum; format: functional
[3] = test system: Candida albicans; assay: Minimum inhibitory concentration against Candida albicans ATCC 10231; format: functional
[4] = test system: Pseudomonas aeruginosa; assay: Minimum inhibitory concentration against Pseudomonas aeruginosae ATCC 27853; format: functional
[5] = test system: Aspergillus flavus; assay: Minimum inhibitory concentration against Aspergillus flavus; format: functional
[6] = test system: Aspergillus niger; assay: Minimum inhibitory concentration against Aspergillus niger; format: functional
[7] = test system: Paraphyton cookei; assay: Minimum inhibitory concentration against Microsporum cookei; format: functional
[8] = test system: Escherichia coli; assay: Minimum inhibitory concentration against Escherichia coli ATCC 25853; format: functional
[9] = test system: Enterococcus faecalis; assay: Minimum inhibitory concentration against Streptococcus faecalis ATCC 29212; format: functional
[10] = test system: Arthroderma uncinatum; assay: Minimum inhibitory concentration against Trichophyton ajelloi; format: functional
[11] = test system: Trichophyton benhamiae; assay: Minimum inhibitory concentration against Trichophyton mentagrophytes; format: functional, Arthroderma benhamiae
[12] = test system: Staphylococcus aureus; assay: Minimum inhibitory concentration Staphylococcus aureus ATCC 29213; format: functional

Row | Compound | MIC [1] | MIC [2] | MIC [3] | MIC [4] | MIC [5] | MIC [6] | MIC [7] | MIC [8] | MIC [9] | MIC [10] | MIC [11] | MIC [12]
1 | CC(C)OC(=O)c1ccc(/N=C(\S)Nc2cccc(/N=C(/S)Nc3ccc(C(=O)OC(C)C)cc3)c2)cc1 | 8 mg/L (≈ 14.5 µM) | 64 mg/L (≈ 116 µM) | > 512 mg/L | > 512 mg/L | ≥ 512 mg/L | ≥ 512 mg/L | 16 mg/L (≈ 29.1 µM) | 512 mg/L (≈ 930 µM) | > 512 mg/L | 64 mg/L (≈ 116 µM) | 32 mg/L (≈ 58.1 µM) | 512 mg/L (≈ 930 µM)
2 | O=C(NNc1ccccc1)c1ccc(NC(=S)Nc2ccc(NC(=S)Nc3ccc(C(=O)NNc4ccccc4)cc3)cc2)cc1 | 8 mg/L (≈ 12.4 µM) | 64 mg/L (≈ 98.9 µM) | > 512 mg/L | 512 mg/L (≈ 792 µM) | ≥ 512 mg/L | ≥ 512 mg/L | 16 mg/L (≈ 24.7 µM) | 512 mg/L (≈ 792 µM) | 512 mg/L (≈ 792 µM) | 128 mg/L (≈ 198 µM) | 16 mg/L (≈ 24.7 µM) | 128 mg/L (≈ 198 µM)
3 | O=C(O)c1ccc(/N=C(\S)Nc2cccc(/N=C(/S)Nc3ccc(C(=O)O)cc3)c2)cc1 | 64 mg/L (≈ 137 µM) | 64 mg/L (≈ 137 µM) | > 512 mg/L | 512 mg/L (≈ 1100 µM) | ≥ 512 mg/L | ≥ 512 mg/L | 32 mg/L (≈ 68.6 µM) | > 512 mg/L | 512 mg/L (≈ 1100 µM) | 64 mg/L (≈ 137 µM) | 64 mg/L (≈ 137 µM) | 256 mg/L (≈ 549 µM)
4 | CCOC(=O)c1ccc(/N=C(\S)Nc2cccc(/N=C(/S)Nc3ccc(C(=O)OCC)c(O)c3)c2)cc1O | 32 mg/L (≈ 57.7 µM) | 32 mg/L (≈ 57.7 µM) | > 512 mg/L | > 512 mg/L | ≥ 512 mg/L | ≥ 512 mg/L | 64 mg/L (≈ 115 µM) | 512 mg/L (≈ 923 µM) | > 512 mg/L | 32 mg/L (≈ 57.7 µM) | 32 mg/L (≈ 57.7 µM) | 256 mg/L (≈ 462 µM)
5 | CCOC(=O)c1ccc(/N=C(\S)Nc2cccc(/N=C(/S)Nc3ccc(C(=O)OCC)cc3)c2)cc1 | 256 mg/L (≈ 490 µM) | 64 mg/L (≈ 122 µM) | > 512 mg/L | > 512 mg/L | ≥ 512 mg/L | ≥ 512 mg/L | 256 mg/L (≈ 490 µM) | 512 mg/L (≈ 980 µM) | > 512 mg/L | 256 mg/L (≈ 490 µM) | 64 mg/L (≈ 122 µM) | 512 mg/L (≈ 980 µM)
6 | O=C(O)c1ccc(N/C(S)=N\c2ccccc2/N=C(/S)Nc2ccc(C(=O)O)cc2)cc1 | 16 mg/L (≈ 34.3 µM) | 32 mg/L (≈ 68.6 µM) | > 512 mg/L | 512 mg/L (≈ 1100 µM) | ≥ 512 mg/L | ≥ 512 mg/L | 32 mg/L (≈ 68.6 µM) | > 512 mg/L | 512 mg/L (≈ 1100 µM) | 16 mg/L (≈ 34.3 µM) | 32 mg/L (≈ 68.6 µM) | > 512 mg/L
7 | O=C(O)c1ccc(/N=C(\S)Nc2cccc(/N=C(/S)Nc3ccc(C(=O)O)c(O)c3)c2)cc1O | 64 mg/L (≈ 128 µM) | 64 mg/L (≈ 128 µM) | > 512 mg/L | > 512 mg/L | ≥ 512 mg/L | ≥ 512 mg/L | 8 mg/L (≈ 16 µM) | 512 mg/L (≈ 1030 µM) | > 512 mg/L | 32 mg/L (≈ 64.2 µM) | 32 mg/L (≈ 64.2 µM) | 256 mg/L (≈ 513 µM)
8 | CC(=O)N1CCN(c2ccc(OC[C@H]3CO[C@](Cn4ccnc4)(c4ccc(Cl)cc4Cl)O3)cc2)CC1 [KETOCONAZOLE] | 16 mg/L (≈ 30.1 µM) | 16 mg/L (≈ 30.1 µM) | 128 mg/L (≈ 241 µM) |  | ≥ 512 mg/L | ≥ 512 mg/L | 8 mg/L (≈ 15.1 µM) |  |  | 16 mg/L (≈ 30.1 µM) | 16 mg/L (≈ 30.1 µM) | 
9 | O=C(O)c1ccc(/N=C(\S)Nc2ccc(/N=C(\S)Nc3ccc(C(=O)O)cc3)cc2)cc1 | 128 mg/L (≈ 274 µM) | 32 mg/L (≈ 68.6 µM) | 512 mg/L (≈ 1100 µM) | 512 mg/L (≈ 1100 µM) | ≥ 512 mg/L | ≥ 512 mg/L | 128 mg/L (≈ 274 µM) | > 512 mg/L | 512 mg/L (≈ 1100 µM) | 128 mg/L (≈ 274 µM) | 32 mg/L (≈ 68.6 µM) | > 512 mg/L
10 | CC(C)OC(=O)c1ccc(/N=C(\S)Nc2ccc(/N=C(\S)Nc3ccc(C(=O)OC(C)C)cc3)cc2)cc1 | 64 mg/L (≈ 116 µM) | 32 mg/L (≈ 58.1 µM) | > 512 mg/L | 512 mg/L (≈ 930 µM) | ≥ 512 mg/L | ≥ 512 mg/L | 64 mg/L (≈ 116 µM) | > 512 mg/L | 512 mg/L (≈ 930 µM) | 64 mg/L (≈ 116 µM) | 64 mg/L (≈ 116 µM) | > 512 mg/L
11 | CC(C)OC(=O)c1ccc(/N=C(\S)Nc2cccc(/N=C(/S)Nc3ccc(C(=O)OC(C)C)c(O)c3)c2)cc1O | 32 mg/L (≈ 54.9 µM) | 32 mg/L (≈ 54.9 µM) | > 512 mg/L | > 512 mg/L | ≥ 512 mg/L | ≥ 512 mg/L | 32 mg/L (≈ 54.9 µM) | 512 mg/L (≈ 879 µM) | > 512 mg/L | 32 mg/L (≈ 54.9 µM) | 16 mg/L (≈ 27.5 µM) | 256 mg/L (≈ 439 µM)
12 | COC(=O)c1ccc(/N=C(\S)Nc2ccc(/N=C(\S)Nc3ccc(C(=O)OC)cc3)cc2)cc1 | 32 mg/L (≈ 64.7 µM) | 256 mg/L (≈ 518 µM) | > 512 mg/L | 512 mg/L (≈ 1040 µM) | ≥ 512 mg/L | ≥ 512 mg/L | 128 mg/L (≈ 259 µM) | > 512 mg/L | 512 mg/L (≈ 1040 µM) | 128 mg/L (≈ 259 µM) | 32 mg/L (≈ 64.7 µM) | > 512 mg/L
13 | CCOC(=O)c1ccc(/N=C(\S)Nc2ccc(/N=C(\S)Nc3ccc(C(=O)OCC)cc3)cc2)cc1 | 128 mg/L (≈ 245 µM) | > 512 mg/L | > 512 mg/L | 512 mg/L (≈ 980 µM) | ≥ 512 mg/L | ≥ 512 mg/L | 128 mg/L (≈ 245 µM) | > 512 mg/L | 512 mg/L (≈ 980 µM) | 256 mg/L (≈ 490 µM) | 512 mg/L (≈ 980 µM) | > 512 mg/L
14 | COC(=O)c1ccc(/N=C(\S)Nc2ccc(/N=C(/S)Nc3ccc(C(=O)OC)c(O)c3)cc2)cc1O | 32 mg/L (≈ 60.8 µM) | 16 mg/L (≈ 30.4 µM) | > 512 mg/L | 512 mg/L (≈ 972 µM) | ≥ 512 mg/L | ≥ 512 mg/L | 64 mg/L (≈ 122 µM) | > 512 mg/L | 512 mg/L (≈ 972 µM) | 32 mg/L (≈ 60.8 µM) | 64 mg/L (≈ 122 µM) | > 512 mg/L
15 | CC(C)OC(=O)c1ccc(/N=C(\S)Nc2ccc(/N=C(/S)Nc3ccc(C(=O)OC(C)C)c(O)c3)cc2)cc1O | 128 mg/L (≈ 220 µM) | 256 mg/L (≈ 439 µM) | > 512 mg/L | 512 mg/L (≈ 879 µM) | ≥ 512 mg/L | ≥ 512 mg/L | 128 mg/L (≈ 220 µM) | > 512 mg/L | 512 mg/L (≈ 879 µM) | 128 mg/L (≈ 220 µM) | > 512 mg/L | > 512 mg/L
16 | O=C(O)c1ccc(N/C(S)=N\c2ccccc2/N=C(/S)Nc2ccc(C(=O)O)c(O)c2)cc1O | 32 mg/L (≈ 64.2 µM) | 16 mg/L (≈ 32.1 µM) | 512 mg/L (≈ 1030 µM) | 512 mg/L (≈ 1030 µM) | ≥ 512 mg/L | ≥ 512 mg/L | 32 mg/L (≈ 64.2 µM) | > 512 mg/L | 512 mg/L (≈ 1030 µM) | 32 mg/L (≈ 64.2 µM) | 8 mg/L (≈ 16 µM) | > 512 mg/L
17 | O=C(O)c1ccc(/N=C(\S)Nc2ccc(/N=C(/S)Nc3ccc(C(=O)O)c(O)c3)cc2)cc1O | 64 mg/L (≈ 128 µM) | 128 mg/L (≈ 257 µM) | 256 mg/L (≈ 513 µM) | 512 mg/L (≈ 1030 µM) | ≥ 512 mg/L | ≥ 512 mg/L | 128 mg/L (≈ 257 µM) | > 512 mg/L | 512 mg/L (≈ 1030 µM) | 128 mg/L (≈ 257 µM) | 128 mg/L (≈ 257 µM) | > 512 mg/L
18 | COC(=O)c1ccc(/N=C(\S)Nc2cccc(/N=C(/S)Nc3ccc(C(=O)OC)c(O)c3)c2)cc1O | 32 mg/L (≈ 60.8 µM) | 64 mg/L (≈ 122 µM) | 512 mg/L (≈ 972 µM) | > 512 mg/L | ≥ 512 mg/L | ≥ 512 mg/L | 32 mg/L (≈ 60.8 µM) | 512 mg/L (≈ 972 µM) | > 512 mg/L | 128 mg/L (≈ 243 µM) | 64 mg/L (≈ 122 µM) | 256 mg/L (≈ 486 µM)
19 | O=C(N[C@H](CO)[C@H](O)c1ccc([N+](=O)[O-])cc1)C(Cl)Cl [CHLORAMPHENICOL] |  |  |  | 512 mg/L (≈ 1580 µM) | ≥ 512 mg/L | ≥ 512 mg/L |  |  |  |  |  | 128 mg/L (≈ 396 µM)
20 | CCOC(=O)c1ccc(/N=C(\S)Nc2ccc(/N=C(/S)Nc3ccc(C(=O)OCC)c(O)c3)cc2)cc1O | 128 mg/L (≈ 231 µM) | 256 mg/L (≈ 462 µM) | > 512 mg/L | 512 mg/L (≈ 923 µM) | ≥ 512 mg/L | ≥ 512 mg/L | 256 mg/L (≈ 462 µM) | > 512 mg/L | 512 mg/L (≈ 923 µM) | > 512 mg/L | > 512 mg/L | > 512 mg/L
21 | O=C(NNc1ccccc1)c1ccc(/N=C(\S)Nc2ccc(/N=C(/S)Nc3ccc(C(=O)NNc4ccccc4)c(O)c3)cc2)cc1O | 64 mg/L (≈ 94.3 µM) | 128 mg/L (≈ 189 µM) | 512 mg/L (≈ 754 µM) | 512 mg/L (≈ 754 µM) | ≥ 512 mg/L | ≥ 512 mg/L | 64 mg/L (≈ 94.3 µM) | 512 mg/L (≈ 754 µM) | 512 mg/L (≈ 754 µM) | 32 mg/L (≈ 47.1 µM) | 32 mg/L (≈ 47.1 µM) | 512 mg/L (≈ 754 µM)
22 | COC(=O)c1ccc(/N=C(\S)Nc2cccc(/N=C(/S)Nc3ccc(C(=O)OC)cc3)c2)cc1 | 128 mg/L (≈ 259 µM) | 128 mg/L (≈ 259 µM) | > 512 mg/L | > 512 mg/L | ≥ 512 mg/L | ≥ 512 mg/L | 64 mg/L (≈ 129 µM) | 512 mg/L (≈ 1040 µM) | > 512 mg/L | 64 mg/L (≈ 129 µM) | 64 mg/L (≈ 129 µM) | 512 mg/L (≈ 1040 µM)

Reference: ChEMBL document CHEMBL1147423, “Synthesis and antifungal activities of phenylenedithioureas” (2004)
